Like-named read-outs stand apart in the source and are kept apart here.
Tests used:
Type in all cases: cell-based, Wistar rats
[1] = tested on: uterine strips; assay: Effect of inhibitors on electrically-induced uterine contractions (field electrical stimulation)
[2] = tested on: uterine strips; assay: tissue or blood
[3] = tested on: uterine strips; assay: tissue or blood; conditions: for minimal effective concentration: read-out: concentration at which rhythmic contractions appeared
[4] = tested on: uterine strips
[5] = tested on: myometrial strips; assay: Simultaneous measurement of contractile force and [Ca2+]i (Fura-2); conditions: veratridine 60 µM; myometrial fibers loaded with Fura-2; responding strips (10 of 21)
[6] = cumulative concentrations 1 nM-30 µM, strips exposed for 90 min (late response) to 60 µM veratridine

CN1[C@@H]2CC[C@H]1C[C@@H](OC(=O)C(CO)c1ccccc1)C2 (stereo partly drawn) [Atropine, atropine]
contractile area of electrically-induced uterine contractions, % of the previous contraction [1]: 30.3 ± 8.1%
contractile area of spontaneous contractions, % of the previous contractile area [2]: 26.7 ± 2.2%
effect on spontaneous uterine contractions [2]: abolished or almost abolished

COc1cc2nc(N3CCN(C(=O)c4ccco4)CC3)nc(N)c2cc1OC [Prazosin, prazosin]
activity at 1 µM ([1]; Rattus norvegicus, read-out: contractile area of electrically-induced uterine contractions, % of the previous contraction): 92.3 ± 4%
activity at 1 µM ([2]; Rattus norvegicus, 40 min, read-out: contractile area of spontaneous contractions, % of the previous contractile area): 108 ± 9.1%

CCN1C[C@]2(COC)[C@H](O)C[C@H](OC)[C@@]34[C@@H]5C[C@@]6(O)[C@H](OC(=O)c7ccccc7)[C@@H]5[C@@](OC(C)=O)([C@@H]([C@H](OC)[C@H]23)[C@@H]14)[C@@H](O)[C@@H]6OC [aconitine]
concentration at which the maximal response was reached [3]: 100 µM
minimal effective concentration [3]: ≥ 100 µM

C=C(C=O)C[C@@H]1C[C@H](O)[C@]2(C)O[C@@H]3C[C@@H]4O[C@@H]5C[C@]6(C)O[C@]7(C)CC[C@@H]8O[C@@H]9C[C@]%10(C)O[C@@H]%11C(C)=CC(=O)O[C@H]%11C[C@H]%10O[C@H]9C[C@@H](C)[C@H]8O[C@H]7C[C@H]6O[C@H]5C/C=C\[C@H]4O[C@H]3C[C@H]2O1 [brevetoxin-B]
concentration at which the maximal response was reached [3]: 0.03 µM

O=C(NCC1CCCCN1)c1cc(OCC(F)(F)F)ccc1OCC(F)(F)F (stereo not drawn) [flecainide]
effect on veratridine-induced rhythmic contractions [4, 6]: did not modify

COc1ccc(C(=O)O[C@H]2CC[C@@]3(C)[C@@H]4CC[C@H]5[C@]6(O)C[C@H](O)[C@@]7(O)[C@@H](CN8C[C@@H](C)CC[C@H]8[C@@]7(C)O)[C@]6(O)C[C@@]53O[C@]24O)cc1OC [veratridine]
minimal effective concentration ([3]; Rattus norvegicus, […], non-pregnant rats, undetermined stage of the ovarian cycle): ≥ 10 µM
concentration at which the maximal response was reached ([3]; measured during a 60 min application, 1.9 or 1.1 mM Ca2+-containing solution): 60 µM
time the contractile response remained very regular and well maintained after addition ([3]; veratridine 60 µM, continuous presence, 24 uterine strips from 12 animals): at least 12 h
frequency of contractions [5]: 0.75 ± 0.09 min⁻¹
mean amplitude of rhythmic contractions during a 10-min period [5]: 8.48 ± 1.20 mN

CCOC(=O)C1=C[C@]2(CC)CCCN3CCc4c(n1c1ccccc41)[C@@H]32 [vinpocetine]
effect on veratridine-induced rhythmic contractions [4, 6]: did not modify

grayanotoxin
concentration at which the maximal response was reached [3]: 30 µM
minimal effective concentration [3]: ≥ 20 µM

µ-conotoxin GIIIB
effect on veratridine-induced rhythmic contractions [4]: did not modify

From patent EP1844781A1 (priority 2006, dated 2007)
